{"source": "patent US6800770B2", "about": "“Anti-spasticity of an eicosanoid analog” (Virginia Commonwealth University, priority 2002, dated 2004)", "key": {"CB1": {"biological_target": "T1, CB1 (Rattus norvegicus, UniProt P20272)", "T1 construct": "from whole rat brain membranes; from tissue; host or cells: whole rat brain membranes", "T1 sequence (P20272 whole entry)": "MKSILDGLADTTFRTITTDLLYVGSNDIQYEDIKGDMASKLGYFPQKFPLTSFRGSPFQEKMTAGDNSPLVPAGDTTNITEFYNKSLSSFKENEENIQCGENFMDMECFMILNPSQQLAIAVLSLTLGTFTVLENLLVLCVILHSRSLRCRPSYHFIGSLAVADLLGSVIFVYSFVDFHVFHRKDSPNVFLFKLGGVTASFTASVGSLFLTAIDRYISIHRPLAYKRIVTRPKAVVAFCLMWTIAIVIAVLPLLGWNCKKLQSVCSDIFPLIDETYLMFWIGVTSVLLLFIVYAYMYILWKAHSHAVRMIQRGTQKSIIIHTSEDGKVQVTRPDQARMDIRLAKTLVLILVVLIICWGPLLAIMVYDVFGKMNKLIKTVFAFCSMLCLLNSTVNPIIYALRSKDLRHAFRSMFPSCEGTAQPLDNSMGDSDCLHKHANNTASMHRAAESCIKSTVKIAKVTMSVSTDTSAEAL", "assay_type": "binding", "settings": "displacement of [3H]CP55940, whole rat brain membranes; means ± S.D., n=3; read-out: CB1 affinity (Ki)"}, "human VR1 receptors": {"biological_target": "T2, human VR1 receptors (Homo sapiens, UniProt Q8NER1)", "T2 construct": "expressed in transfected cells; host or cells: HEK-hVR1 cells", "T2 sequence (Q8NER1 whole entry)": "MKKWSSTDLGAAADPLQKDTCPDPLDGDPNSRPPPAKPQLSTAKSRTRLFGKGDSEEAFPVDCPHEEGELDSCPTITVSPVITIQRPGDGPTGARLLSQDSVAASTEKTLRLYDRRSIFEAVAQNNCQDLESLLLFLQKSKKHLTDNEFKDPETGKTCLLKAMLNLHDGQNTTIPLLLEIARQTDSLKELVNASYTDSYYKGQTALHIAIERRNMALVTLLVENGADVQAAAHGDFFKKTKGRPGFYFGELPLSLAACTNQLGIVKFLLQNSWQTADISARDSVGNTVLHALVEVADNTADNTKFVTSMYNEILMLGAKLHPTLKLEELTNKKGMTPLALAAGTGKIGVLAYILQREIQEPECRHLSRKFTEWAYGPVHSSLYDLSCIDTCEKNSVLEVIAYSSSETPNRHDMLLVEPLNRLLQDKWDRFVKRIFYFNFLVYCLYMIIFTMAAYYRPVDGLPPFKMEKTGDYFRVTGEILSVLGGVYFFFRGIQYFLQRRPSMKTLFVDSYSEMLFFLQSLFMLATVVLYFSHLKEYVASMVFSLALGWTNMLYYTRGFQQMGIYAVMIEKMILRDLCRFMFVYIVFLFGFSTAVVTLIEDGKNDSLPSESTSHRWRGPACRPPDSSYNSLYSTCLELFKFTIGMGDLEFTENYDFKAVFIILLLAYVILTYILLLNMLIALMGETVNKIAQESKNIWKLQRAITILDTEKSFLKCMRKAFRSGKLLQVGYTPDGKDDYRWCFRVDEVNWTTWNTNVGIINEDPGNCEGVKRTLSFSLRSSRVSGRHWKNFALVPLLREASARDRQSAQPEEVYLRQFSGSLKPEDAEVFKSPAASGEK", "test": "Enhancement of [Ca2+] via HEK-hVR1 cells", "assay_type": "cell-based", "source_text": "J. Pharm. Exp. Ther. 300: 984."}, "[1]": {"tested_on": "spasticity in Biozzi ABH mice", "settings": "0.05 mg/kg i.v.; baseline vs 30 min after treatment", "procedure": "This was assessed to detect limb stiffness by analysis using a strain gauge (Baker et al 2000). The analogue signal from the strain gauge was amplified and digitally converted using an ComputerBoards Inc PCM-DAS16S/12 card (Amplicon, Brighton, UK). This was captured using Dacquire V10 software (D.Buckwell, Institute of Neurology, UK) and analyzed using Spike 2 software (Cambridge Electronics Design, UK). The hindlimbs were fully extended twice then moved to full flexion against the strain gauge. The mean of 4-8 individual readings per limb was taken for each time point. Results are expressed as means of forces of resistance to flexion (in Newtons) and SEM per group.\nStatistical analysis was performed using Sigmastat 2.0 (Jandel/SPSS, USA) using one-way repeated measures analysis of variance (ANOVA) incorporating a pair-wise Student-Newman-Keuls (SNK) test. […] N=13 limbs analyzed from 8 spastic animals.\nArvanil treatment was carried out with and without pretreatment of the animals with SR141617A, SR144528 (known to inhibit CB1 and CB2 receptor function, respectively) and capsazepine, a known antagonist of the vanilloid recpetor (VR-1)."}}}
{"smiles": "CCCCC/C=C\\C/C=C\\C/C=C\\C/C=C\\CCCC(=O)N(Cc1ccc(O)c(Cl)c1)Cc1ccc(O)c(Cl)c1", "note": "[O-2093, N,N-Di-3-chloro-4-hydroxybenzylarachadonamide]", "values": [{"measurement": "Ki", "setting": "CB1", "result": "1290 ± 140", "unit": "nM"}, {"measurement": "Emax", "setting": "human VR1 receptors; in parentheses in the hVR1 potency column, read-out: hVR1 efficacy (maximal effect as percentage of the effect of 4 μM capsaicin)", "result": 26.9, "unit": "%"}, {"measurement": "EC50", "setting": "human VR1 receptors; read-out: hVR1 potency (EC50), means ± S.D., n=3", "result": "> 50000", "unit": "nM"}, {"measurement": "decrease in resistance to flexion", "setting": "[1]", "result": "~35", "unit": "%"}]}
